# Experimental data as given in paper PMC8327158, “PEGylated AdipoRon derivatives improve glucose and lipid metabolism under insulinopenic and high-fat diet conditions” (Journal of Lipid Research, 2021).
# Tested on: HFD-fed wild-type mice
# Assay: Sphingolipid levels in tissues and serum of HFD-fed mice by mass spectrometry
# Format: in vivo, mouse
# Conditions: for Cer 14:0 / Cer 16:0 / Cer 18:0 / Cer 18:1 / Cer 20:0 / Cer 22:0 / Cer 24:0 / Cer 24:1 / Cer 26:0 / Cer 26:1 / DeoxySphinganie / Deoxysphingosine / Hexosyl 14:0 / Hexosyl 16:0 / Hexosyl 18:0 / Hexosyl 20:0 / Hexosyl 22:0 / Hexosyl 24:0 / Hexosyl 24:1 / Lactosyl 16:0 / Lactosyl 18:0 / Lactosyl 22:0 / Lactosyl 24:1 / Lactosyl C24:0 / Sphingaine1P / Sphinganine / Sphingosine / Sphingosine1P / dCer 16:0 / dCer 18:0 / dCer 20:0 / dCer 22:0 / dCer 24:0 / dCer 24:1: 5 mg/kg twice a day 5 days, average ± SD
# Description: Six-week-old wild-type male mice were fed HFD for 4 weeks or 7 months In total, 5 mg/Kg of PBS, Adiporon, AdipoRonPEG5, AdipoRonPEG6HTL were injected twice a day for 5 days. After 5 days of treatment, systemic test is performed, and serum (Before and after treatment), subcutaneous, epididymal, liver, heart samples were harvested for qPCR and sphingolipid analysis.
# Flash-frozen tissue samples (~40 mg) in a borosilicate glass tube were quenched with 2.0 ml of organic extraction solvent (isopropanol: ethyl acetate, 15:85; v:v) and homogenized with a mechanical tissue disruptor. Immediately afterward, 20 μl of organic internal standard solution was added (Ceramide/Sphingoid Internal Standard Mixture II diluted 1:10 in ethanol). The mixture was vortexed for 20 s and sonicated in ultrasonic bath for 40 min at 40°C. The organic extract was allowed to reach room temperature, and 1.5 ml of HPLC water was added and a two-phase liquid-liquid extraction was performed. The upper phase was transferred to a new clean tube, and the lower aqueous phase containing the protein pellet was re-extracted with additional 2.0 ml of organic extraction solvent. The organic phases were combined and dried under nitrogen stream at 40°C. Dried extracts were stored at –80°C until analysis. For analysis of ceramides and sphingoid base species, the dried residues were reconstituted in 200 μl of methanol. Sphingomyelins required a sample dilution of 1:50 in methanol prior to analysis. Serum sphingolipids were extracted using a similar methodology requiring 25 μl of serum.
# Liver, subcutaneous adipose tissue, pancreas, pancreatic islets were initially homogenized in 500 μl of cold PBS using an ultrasonic probe disruptor and keeping the sample on ice during sonication. In total, 50 μl of aqueous homogenate was aliquoted for protein determination. In total, 400 μl of the lysate was immediately quenched in 2.0 ml of organic extraction solvent.
# In total, 5 μl of reconstituted samples was injected into an LC/MS/MS system for the analysis of ceramides and sphingoid bases, and 1 μl injection was required for the analysis of sphingomyelins. The system consisted of a Shimadzu LCMS-8050 triple-quadrupole mass spectrometer with the dual ion source operating in electrospray positive ionization mode. The mass spectrometer is coupled to a Shimadzu Nexera X2 UHPLC system equipped with three solvent delivery modules LC-30AD, three degassing units DGU-20A5R, an autosampler SIL-30ACMP, and a column oven CTO-20AC operating at 40°C (Shimadzu Scientific Instruments, Columbia, MD). Six sphingoid bases (d18:1 sphingosine, d18:1 sphingosine-1-phosphate, d18:1 deoxysphingosine, d18:0 sphinganine, d18:0 sphinganine-1-phosphate, d18:0 deoxysphinganine) and […] ceramide species and their metabolites (C16:0, C16:0 dihydroceramide, C16:0 glucosylceramide, C16:0 lactosylceramide, C16:0 sphingomyelin, C18:0, C18:0 dihydroceramide, C18:0 glucosylceramide, C18:0 sphingomyelin, C18:1, C20:0, C22:0, C22:0 glucosylceramide, C24:0, C24:0 dihydroceramide, C24:0 lactosylceramide, C24:0 sphingomyelin, C24:1, C24:1 dihydroceramide, C24:1 glucosylceramide, C24:1 sphingomyelin). Quantitative analysis of sphingolipids was achieved using selective reaction monitoring scan mode. Lipid separation was achieved by reverse phase LC on a 2.1 (i.d.) × 150 mm Ascentis Express C8, 2.7 micron (Supelco, Bellefonte, PA) column under gradient elution, using three different mobile phases: eluent A consisting of methanol/water/formic acid, 600/400/0.8, v/v/v with 5 mM ammonium formate, eluent B consisting of methanol/formic acid, 1,000/0.8, v/v with 5 mM ammonium formate, and eluent C consisting of CH3OH/CH2Cl2 350/650. The concentration of each metabolite was determined according to calibration curves using the peak-area ratio of analyte versus corresponding internal standard. Calibration curves were generated using serial dilutions of each target analyte.
compound,measurement,setting,value
O=C(COc1ccc(C(=O)c2ccccc2)cc1)NC1CCN(Cc2ccccc2)CC1 [AdipoRon],scWAT ceramide levels,5 mg/kg,neither AdipoRon nor AdipoRonPEG5 had a noticeable impact
same,hepatic dihydroceramides,IP 5 mg/kg,nor did it lower dihydroceramide
same,sphingoid bases including S1P in the liver,IP 5 mg/kg,neither increased sphingoid bases
same,Cer 14:0,liver,11180.9 ± 7129.23 pg/mg
same,Cer 16:0,liver,15452.5 ± 14214.83 pg/mg
same,Cer 18:0,liver,47128.6 ± 39264.7 pg/mg
same,Cer 18:1,liver,0 pg/mg
same,Cer 20:0,liver,2021924.3 ± 1132557.52 pg/mg
same,Cer 22:0,liver,21221267.5 ± 1938950.14 pg/mg
same,Cer 24:0,liver,8844684.8 ± 1440139.38 pg/mg
same,Cer 24:1,liver,7621686.9 ± 1072827.16 pg/mg
same,Cer 26:0,liver,108319.5 ± 12837.73 pg/mg
same,Cer 26:1,liver,87632.7 ± 14143.63 pg/mg
same,DeoxySphinganie,liver,16855.9 ± 5197.82 pg/mg
same,Deoxysphingosine,liver,554.4 ± 112.17 pg/mg
same,Hexosyl 14:0,liver,6839.3 ± 2807.56 pg/mg
same,Hexosyl 16:0,liver,2057918.6 ± 682419.73 pg/mg
same,Hexosyl 18:0,liver,13702.3 ± 11183.27 pg/mg
same,Hexosyl 20:0,liver,139906.7 ± 74494.86 pg/mg
same,Hexosyl 22:0,liver,21992555.3 ± 7887275.74 pg/mg
same,Hexosyl 24:0,liver,9407290.2 ± 3691767.57 pg/mg
same,Hexosyl 24:1,liver,7250991.4 ± 2638110.11 pg/mg
same,Lactosyl 16:0,liver,401293.8 ± 92547.01 pg/mg
same,Lactosyl 18:0,liver,0.0 ± 0.0 pg/mg
same,Lactosyl 22:0,liver,604972.0 ± 219908.19 pg/mg
same,Lactosyl 24:1,liver,424590.5 ± 191122.31 pg/mg
same,Lactosyl C24:0,liver,317251.2 ± 183613.54 pg/mg
same,Sphingaine1P,liver,55129.9 ± 14495.18 pg/mg
same,Sphinganine,liver,299552.9 ± 52030.89 pg/mg
same,Sphingosine,liver,1192462 ± 75216.97 pg/mg
same,Sphingosine1P,liver,178631.8 ± 67607.36 pg/mg
same,dCer 16:0,liver,18233.3 ± 21176.21 pg/mg
same,dCer 18:0,liver,45901.3 ± 42922.13 pg/mg
same,dCer 20:0,liver,37867.7 ± 27772.5 pg/mg
same,dCer 22:0,liver,385034 ± 150652 pg/mg
same,dCer 24:0,liver,364847.1 ± 73663.91 pg/mg
same,dCer 24:1,liver,130075.8 ± 53105.06 pg/mg
same,Cer 14:0,pancreas,26.4 ± 4.51 pg/mg
same,Cer 16:0,pancreas,26.1 ± 10.18 pg/mg
same,Cer 18:0,pancreas,28.9 ± 6.11 pg/mg
same,Cer 18:1,pancreas,0 pg/mg
same,Cer 20:0,pancreas,1529.7 ± 140.3 pg/mg
same,Cer 22:0,pancreas,7541.1 ± 1118.82 pg/mg
same,Cer 24:0,pancreas,21064.5 ± 2932.0 pg/mg
same,Cer 24:1,pancreas,10791.6 ± 1783.65 pg/mg
same,Cer 26:0,pancreas,155.6 ± 36.08 pg/mg
same,Cer 26:1,pancreas,81.6 ± 16.04 pg/mg
same,DeoxySphinganie,pancreas,2.1 ± 0.29 pg/mg
same,Deoxysphingosine,pancreas,0.0 ± 0.0 pg/mg
same,Hexosyl 14:0,pancreas,3.8 ± 0.85 pg/mg
same,Hexosyl 16:0,pancreas,2561.5 ± 453.4 pg/mg
same,Hexosyl 18:0,pancreas,7.3 ± 3.14 pg/mg
same,Hexosyl 20:0,pancreas,112.7 ± 34.01 pg/mg
same,Hexosyl 22:0,pancreas,6774.3 ± 637.6 pg/mg
same,Hexosyl 24:0,pancreas,3358.5 ± 311.97 pg/mg
same,Hexosyl 24:1,pancreas,1427.8 ± 124.45 pg/mg
same,Lactosyl 16:0,pancreas,975.8 ± 208.21 pg/mg
same,Lactosyl 18:0,pancreas,52.8 ± 9.76 pg/mg
same,Lactosyl 22:0,pancreas,223.0 ± 50.43 pg/mg
same,Lactosyl 24:1,pancreas,310.1 ± 93.68 pg/mg
same,Lactosyl C24:0,pancreas,2057.1 ± 422.83 pg/mg
same,Sphingaine1P,pancreas,17.5 ± 11.69 pg/mg
same,Sphinganine,pancreas,25.9 ± 3.48 pg/mg
same,Sphingosine,pancreas,217.3 ± 27.75 pg/mg
same,Sphingosine1P,pancreas,90.3 ± 22.26 pg/mg
same,dCer 16:0,pancreas,3.8 ± 1.52 pg/mg
same,dCer 18:0,pancreas,0.0 ± 0.0 pg/mg
same,dCer 20:0,pancreas,2.0 ± 0.18 pg/mg
same,dCer 22:0,pancreas,24.6 ± 9.85 pg/mg
same,dCer 24:0,pancreas,206.7 ± 49.68 pg/mg
same,dCer 24:1,pancreas,24.0 ± 10.28 pg/mg
same,Cer 14:0,scWAT,41670.5 ± 9888.98 pg/mg
same,Cer 16:0,scWAT,200569.4 ± 60832.18 pg/mg
same,Cer 18:0,scWAT,90968.7 ± 40221.97 pg/mg
same,Cer 18:1,scWAT,24648 ± 8680 pg/mg
same,Cer 20:0,scWAT,189778.3 ± 38166.38 pg/mg
same,Cer 22:0,scWAT,835762.6 ± 112294.65 pg/mg
same,Cer 24:0,scWAT,2316061.3 ± 1012651.99 pg/mg
same,Cer 24:1,scWAT,2616280.7 ± 714833.34 pg/mg
same,Cer 26:0,scWAT,25284.4 ± 8047.31 pg/mg
same,Cer 26:1,scWAT,27852.3 ± 8212.8 pg/mg
same,DeoxySphinganie,scWAT,1039.3 ± 1085.07 pg/mg
same,Deoxysphingosine,scWAT,0.0 ± 0.0 pg/mg
same,Hexosyl 14:0,scWAT,3863.9 ± 2313.65 pg/mg
same,Hexosyl 16:0,scWAT,1558779.8 ± 419292.53 pg/mg
same,Hexosyl 18:0,scWAT,879349.9 ± 318302.5 pg/mg
